In patent publication US11834453B2, “Substituted pyrimido[5,4-d]pyrimidines as HER2 inhibitors” (Array BioPharma Inc., priority 2020, dated 2023) one finds IC50 data, which are given here for 21 compounds.

Broadly, the IC50 is the concentration at which inhibition is half-maximal.

The target of experiment [1] is ErbB2 insYVMA (HER2-YVMA, SEQ ID NO: 2) (Homo sapiens, UniProt P04626, INS775YVMA/P1170A). Description: biochemical. The conditions noted are these: ErbB2 insYVMA enzyme assay; read-out: Assay 1 IC50.
Sequence of ErbB2 insYVMA (HER2-YVMA, SEQ ID NO: 2) (P04626 with tags, fused parts or gaps INS775YVMA/P1170A limits assumed): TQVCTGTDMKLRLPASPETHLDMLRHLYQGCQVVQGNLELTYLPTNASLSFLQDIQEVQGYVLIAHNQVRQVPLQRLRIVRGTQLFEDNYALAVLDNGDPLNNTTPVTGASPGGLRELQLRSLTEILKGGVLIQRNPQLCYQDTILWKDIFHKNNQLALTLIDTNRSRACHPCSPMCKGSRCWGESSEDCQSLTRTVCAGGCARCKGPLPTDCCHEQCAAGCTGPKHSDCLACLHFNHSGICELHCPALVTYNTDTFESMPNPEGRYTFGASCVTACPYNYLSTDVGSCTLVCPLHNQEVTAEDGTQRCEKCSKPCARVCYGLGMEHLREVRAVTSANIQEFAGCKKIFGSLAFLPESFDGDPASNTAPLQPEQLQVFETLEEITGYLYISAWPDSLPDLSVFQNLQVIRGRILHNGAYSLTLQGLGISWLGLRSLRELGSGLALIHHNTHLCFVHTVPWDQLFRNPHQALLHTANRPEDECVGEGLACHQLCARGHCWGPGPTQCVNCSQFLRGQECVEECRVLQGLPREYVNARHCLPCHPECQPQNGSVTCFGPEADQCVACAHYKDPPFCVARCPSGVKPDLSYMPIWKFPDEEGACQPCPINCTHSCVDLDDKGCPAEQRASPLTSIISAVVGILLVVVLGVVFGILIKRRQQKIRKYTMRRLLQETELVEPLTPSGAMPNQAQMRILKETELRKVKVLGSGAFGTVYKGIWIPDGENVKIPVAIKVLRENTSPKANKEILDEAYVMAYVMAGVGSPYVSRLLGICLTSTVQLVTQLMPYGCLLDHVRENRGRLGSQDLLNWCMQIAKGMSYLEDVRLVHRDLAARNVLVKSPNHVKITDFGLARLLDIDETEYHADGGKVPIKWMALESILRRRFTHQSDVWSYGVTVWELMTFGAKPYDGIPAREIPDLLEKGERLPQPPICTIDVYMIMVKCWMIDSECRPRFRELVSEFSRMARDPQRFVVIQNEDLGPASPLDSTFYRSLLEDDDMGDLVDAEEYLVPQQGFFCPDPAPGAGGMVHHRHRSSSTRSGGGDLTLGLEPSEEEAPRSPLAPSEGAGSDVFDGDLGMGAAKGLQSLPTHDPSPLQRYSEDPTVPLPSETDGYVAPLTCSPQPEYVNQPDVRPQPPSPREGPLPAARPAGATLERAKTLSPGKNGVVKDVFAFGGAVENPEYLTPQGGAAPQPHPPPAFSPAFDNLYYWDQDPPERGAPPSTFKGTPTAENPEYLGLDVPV
A further experiment deals with ErbB2 WT (Homo sapiens (Human), UniProt P04626). Nature of the experiment: ErbB enzyme assay (CisBio HTRF KinEASE-TK), Assay 2. The experiment is classed as biochemical. In a few lines: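 Readout is HTRF KinEASE-TK, using Sa-XL665 and cryptate antibody for 1 h at 22 °C, as percent of control between DMSO-only (100) and pre-quenched (0) reactions. The kinase reaction runs 30 min at 22 °C with 1 mM ATP and 250 nM biotinylated TK substrate, in HEPES pH 7.4 with MgCl2 and 2% DMSO.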
Sequence of ErbB2 WT (P04626 23-1255): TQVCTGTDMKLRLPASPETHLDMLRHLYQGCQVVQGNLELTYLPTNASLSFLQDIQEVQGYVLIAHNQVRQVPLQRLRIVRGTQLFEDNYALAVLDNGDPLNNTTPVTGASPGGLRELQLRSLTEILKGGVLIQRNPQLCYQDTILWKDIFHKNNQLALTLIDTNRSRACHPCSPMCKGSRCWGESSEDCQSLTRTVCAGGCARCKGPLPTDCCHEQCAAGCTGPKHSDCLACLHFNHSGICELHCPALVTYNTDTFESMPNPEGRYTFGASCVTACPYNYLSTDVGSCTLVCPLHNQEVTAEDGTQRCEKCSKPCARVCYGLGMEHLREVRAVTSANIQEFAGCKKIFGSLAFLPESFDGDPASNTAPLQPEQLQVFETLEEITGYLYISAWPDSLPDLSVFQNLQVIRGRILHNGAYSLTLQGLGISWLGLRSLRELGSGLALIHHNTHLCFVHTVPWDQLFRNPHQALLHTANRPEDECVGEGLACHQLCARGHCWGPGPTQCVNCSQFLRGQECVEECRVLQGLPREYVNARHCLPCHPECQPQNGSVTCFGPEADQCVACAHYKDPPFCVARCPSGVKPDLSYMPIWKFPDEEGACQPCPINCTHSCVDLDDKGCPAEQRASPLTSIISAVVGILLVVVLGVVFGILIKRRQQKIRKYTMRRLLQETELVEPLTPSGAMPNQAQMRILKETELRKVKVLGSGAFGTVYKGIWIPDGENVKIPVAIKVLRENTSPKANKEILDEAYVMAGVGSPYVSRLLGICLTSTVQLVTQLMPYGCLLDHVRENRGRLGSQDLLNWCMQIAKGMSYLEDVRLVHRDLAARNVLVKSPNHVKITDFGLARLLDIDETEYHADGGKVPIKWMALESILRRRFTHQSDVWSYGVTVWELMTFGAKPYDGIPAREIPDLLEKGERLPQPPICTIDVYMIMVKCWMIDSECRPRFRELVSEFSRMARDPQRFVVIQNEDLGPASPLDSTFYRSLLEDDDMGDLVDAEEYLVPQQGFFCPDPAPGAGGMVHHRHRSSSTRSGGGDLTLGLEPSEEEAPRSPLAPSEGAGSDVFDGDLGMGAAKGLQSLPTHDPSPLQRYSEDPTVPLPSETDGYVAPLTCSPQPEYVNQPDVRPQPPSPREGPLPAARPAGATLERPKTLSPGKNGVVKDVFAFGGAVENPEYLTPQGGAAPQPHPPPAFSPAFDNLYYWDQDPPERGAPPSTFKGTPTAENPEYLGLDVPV
In general terms: In TR-FRET formats the signal depends on donor and acceptor labels being close together.

In another experiment the target is EGFR (Homo sapiens (Human), UniProt P00533). Nature of the experiment: ErbB enzyme assay (CisBio HTRF KinEASE-TK), Assay 3. The experiment is classed as biochemical. In a few lines: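 IC50 was taken where a 4-parameter logistic fit crossed 50 percent of control (DMSO 100, pre-quenched 0), read by ratiometric HTRF. Reactions ran 30 min at 22 °C with 1 mM ATP and 250 nM TK-substrate biotin in pH 7.4 HEPES buffer with MgCl2, Triton X-100 and 2% DMSO.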
Sequence of EGFR (P00533 25-1210): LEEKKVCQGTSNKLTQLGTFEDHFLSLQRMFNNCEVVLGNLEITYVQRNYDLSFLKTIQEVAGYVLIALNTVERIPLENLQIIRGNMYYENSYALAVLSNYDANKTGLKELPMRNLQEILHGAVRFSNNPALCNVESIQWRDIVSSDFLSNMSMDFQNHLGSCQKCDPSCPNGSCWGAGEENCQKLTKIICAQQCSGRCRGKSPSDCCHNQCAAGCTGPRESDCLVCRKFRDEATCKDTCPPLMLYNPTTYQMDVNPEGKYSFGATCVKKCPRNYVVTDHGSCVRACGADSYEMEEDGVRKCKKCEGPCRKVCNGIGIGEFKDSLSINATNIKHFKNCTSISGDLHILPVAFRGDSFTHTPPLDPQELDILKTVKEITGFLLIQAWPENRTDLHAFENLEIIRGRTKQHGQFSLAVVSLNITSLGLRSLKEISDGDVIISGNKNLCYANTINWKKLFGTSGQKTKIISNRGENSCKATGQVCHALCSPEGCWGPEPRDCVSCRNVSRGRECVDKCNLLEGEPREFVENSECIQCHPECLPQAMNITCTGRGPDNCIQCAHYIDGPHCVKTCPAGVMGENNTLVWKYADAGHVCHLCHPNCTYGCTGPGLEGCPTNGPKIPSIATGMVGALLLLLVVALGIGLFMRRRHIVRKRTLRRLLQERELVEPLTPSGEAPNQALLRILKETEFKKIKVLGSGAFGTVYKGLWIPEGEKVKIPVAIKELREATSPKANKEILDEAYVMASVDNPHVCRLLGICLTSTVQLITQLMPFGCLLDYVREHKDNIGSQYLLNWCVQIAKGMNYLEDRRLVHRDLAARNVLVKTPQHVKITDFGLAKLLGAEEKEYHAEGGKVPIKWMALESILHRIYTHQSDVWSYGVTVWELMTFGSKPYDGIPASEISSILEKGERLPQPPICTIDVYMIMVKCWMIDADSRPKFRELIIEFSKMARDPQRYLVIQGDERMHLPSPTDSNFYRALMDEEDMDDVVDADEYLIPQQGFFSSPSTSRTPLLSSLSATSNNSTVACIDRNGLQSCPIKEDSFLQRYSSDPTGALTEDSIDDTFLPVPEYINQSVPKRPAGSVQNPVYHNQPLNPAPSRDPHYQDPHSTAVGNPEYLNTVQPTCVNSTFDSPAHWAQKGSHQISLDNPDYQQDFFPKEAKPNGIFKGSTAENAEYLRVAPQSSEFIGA

For experiment [2], the target named is ErbB2 with Exon 20 YVMA insertion (HER2-YVMA) (Homo sapiens (Human), UniProt P04626, INS775YVMA). Nature of the experiment: Cellular phosphorylation assay, constitutive ErbB2 phosphorylation (Y1196) in engineered NIH 3T3 cells, Assay 4. It counts as cell-based. In outline:
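In-cell Western in NIH 3T3 cells carrying ErbB2 exon 20 YVMA insertion, with no ligand stimulation. One hour compound exposure at 37 °C before fixation and anti-pY1196 plus GAPDH staining with dual-wavelength fluorescence. IC50 derived after GAPDH normalization.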

The next experiment has as its target EGFR wild type (EGFR WT) (Homo sapiens (Human), UniProt P00533). Description: Cellular phosphorylation assay, EGF-stimulated EGFR phosphorylation in engineered NIH 3T3 cells, Phospho-EGFR DuoSet IC ELISA, Assay 5. The experiment is classed as cell-based. In outline: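 Phospho-EGFR ELISA on lysates of engineered NIH 3T3 EGFR WT cells, IC50 derived from concentration curves. Cells plated at 20,000/well overnight, given compound dilutions 1 h at 37 °C, then rEGF 100 ng/ml for a further 10 min before lysis.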
A general note: ELISA stands for enzyme-linked immunosorbent assay.

Sequence of ErbB2 with Exon 20 YVMA insertion (HER2-YVMA) (P04626 other isoform, or with tags, fused parts or gaps ins YVMA behind 775): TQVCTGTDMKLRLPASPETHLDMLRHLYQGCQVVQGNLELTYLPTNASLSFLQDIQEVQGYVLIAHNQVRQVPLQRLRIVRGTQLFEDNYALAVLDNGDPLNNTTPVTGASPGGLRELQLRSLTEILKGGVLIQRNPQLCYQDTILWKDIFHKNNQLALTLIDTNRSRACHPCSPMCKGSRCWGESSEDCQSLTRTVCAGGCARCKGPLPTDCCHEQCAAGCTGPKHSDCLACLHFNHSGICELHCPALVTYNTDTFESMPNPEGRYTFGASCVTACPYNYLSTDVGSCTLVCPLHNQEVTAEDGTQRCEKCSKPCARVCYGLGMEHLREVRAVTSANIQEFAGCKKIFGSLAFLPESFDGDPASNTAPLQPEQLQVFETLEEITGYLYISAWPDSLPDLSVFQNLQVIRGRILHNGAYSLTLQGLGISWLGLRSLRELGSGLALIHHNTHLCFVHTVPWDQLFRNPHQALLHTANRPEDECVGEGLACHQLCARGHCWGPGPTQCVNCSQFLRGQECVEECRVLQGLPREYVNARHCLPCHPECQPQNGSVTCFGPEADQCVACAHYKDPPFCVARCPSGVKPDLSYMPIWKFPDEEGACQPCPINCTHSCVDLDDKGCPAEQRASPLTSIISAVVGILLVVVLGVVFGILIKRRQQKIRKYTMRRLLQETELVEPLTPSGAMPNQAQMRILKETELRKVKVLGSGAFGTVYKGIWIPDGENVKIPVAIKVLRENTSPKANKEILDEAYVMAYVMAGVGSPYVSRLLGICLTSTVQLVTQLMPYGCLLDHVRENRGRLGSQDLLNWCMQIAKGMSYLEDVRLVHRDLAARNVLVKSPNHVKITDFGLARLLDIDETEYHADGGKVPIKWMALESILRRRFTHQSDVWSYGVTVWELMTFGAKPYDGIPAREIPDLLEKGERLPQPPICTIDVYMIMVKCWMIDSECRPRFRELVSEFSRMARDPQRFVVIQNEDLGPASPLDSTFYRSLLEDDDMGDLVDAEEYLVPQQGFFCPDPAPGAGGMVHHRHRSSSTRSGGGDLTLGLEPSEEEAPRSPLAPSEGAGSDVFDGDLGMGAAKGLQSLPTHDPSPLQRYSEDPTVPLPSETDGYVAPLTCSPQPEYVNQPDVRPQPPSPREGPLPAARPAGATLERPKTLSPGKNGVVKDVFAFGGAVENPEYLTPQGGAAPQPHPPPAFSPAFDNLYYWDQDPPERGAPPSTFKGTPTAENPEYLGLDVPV

With `Cc1cc(Nc2ncnc3cnc(N4CC[C@@H](CC#N)C4)nc23)ccc1Oc1ccc2c(c1)ncn2C` [Example 201, (S)-2-(1-(8-((3-methyl-4-((1-methyl-1H-benzo[d]imidazol-5-yl)oxy)phenyl)amino)pyrimido[5,4-d]pyrimidin-2-yl)pyrrolidin-3-yl)acetonitrile], the half-maximal inhibitory concentration (IC50) in experiment [1] was 27.7 nM; against ErbB2 WT, 88.8 nM; at EGFR, at least 10000 nM; in experiment [2], 9.9 nM; at EGFR wild type (EGFR WT), at least 5000 nM.

For the compound `Cc1cc(Nc2ncnc3cnc(N(C)CC(C)(C)C#N)nc23)ccc1Oc1ccc2c(c1)ncn2C` [Example 205, 2,2-dimethyl-3-(methyl(8-((3-methyl-4-((1-methyl-1H-benzo[d]imidazol-5-yl)oxy)phenyl)amino)pyrimido[5,4-d]pyrimidin-2-yl)amino)propanenitrile], the 50% inhibitory concentration (IC50) was 29.7 nM in experiment [1]; 104 nM against ErbB2 WT; at least 10000 nM against EGFR; 25.6 nM in experiment [2]; at least 5000 nM on EGFR wild type (EGFR WT).

Consider `Cc1cc(Nc2ncnc3cnc(N4CCC(C)(O)CC4)nc23)c(F)cc1Oc1ccc2c(c1)ncn2C` [Example 215, 1-(8-((2-fluoro-5-methyl-4-((1-methyl-1H-benzo[d]imidazol-5-yl)oxy)phenyl)amino)pyrimido[5,4-d]pyrimidin-2-yl)-4-methylpiperidin-4-ol], for which the IC50 in experiment [1] is 28.8 nM; against ErbB2 WT it was 120 nM; against EGFR it was at least 10000 nM; in experiment [2] it was 37.8 nM; against EGFR wild type (EGFR WT), at least 5000 nM.

Turning to `CON(C)CCNc1ncc2ncnc(Nc3ccc(Oc4ccc5c(c4)ncn5C)c(C)c3)c2n1` [Example 219, N2-(2-(methoxy(methyl)amino)ethyl)-N8-(3-methyl-4-((1-methyl-1H-benzo[d]imidazol-5-yl)oxy)phenyl)pyrimido[5,4-d]pyrimidine-2,8-diamine], the IC50 was 14.8 nM in experiment [1]; 27.6 nM on ErbB2 WT; 2110 nM against EGFR; 6.2 nM in experiment [2]; at least 5000 nM against EGFR wild type (EGFR WT).

Consider `CON1CCC(Nc2ncc3ncnc(Nc4ccc(Oc5ccc6c(c5)ncn6C)c(C)c4)c3n2)C1` (stereo not drawn) [Example 220, N2-(1-methoxpyrrolidin-3-yl)-N8-(3-methyl-4-((1-methyl-1H-benzo[d]imidazol-5-yl)oxy)phenyl)pyrimido[5,4-d]pyrimidine-2,8-diamine], for which the IC50 in experiment [1] was 9.3 nM; against ErbB2 WT it was 12.1 nM; at EGFR, 1520 nM; in experiment [2], 8 nM; against EGFR wild type (EGFR WT), at least 5000 nM.

For the compound `Cc1cnc(-c2ncc3ncnc(Nc4ccc(Oc5ccc6c(c5)ncn6C)c(C)c4)c3n2)o1` [Example 231], the IC50 in experiment [1] was 115 nM; against ErbB2 WT, 274 nM; against EGFR it was at least 10000 nM; in experiment [2], 39.2 nM; against EGFR wild type (EGFR WT) it was at least 5000 nM.

As to `CNc1ncc2ncnc(Nc3ccc(Oc4ccc5csnc5c4)c(C)c3)c2n1` [Example 241], the IC50 is 28.3 nM in experiment [1]; 123 nM against ErbB2 WT; 1640 nM against EGFR; 244 nM in experiment [2]; at least 5000 nM against EGFR wild type (EGFR WT).

In the case of `Cc1cc(Nc2ncnc3cnc(N4CCOCC4)nc23)ccc1Oc1ccc2csnc2c1` [Example 243], the IC50 in experiment [1] was determined as 40.6 nM; against ErbB2 WT it was 264 nM; against EGFR, 2490 nM; in experiment [2] it was 173 nM; against EGFR wild type (EGFR WT), 3040 nM.

Turning to `Cc1cc(Nc2ncnc3cnc(N4CC5CCC(C4)O5)nc23)ccc1Oc1ccc2c(c1)ncn2C` [Example 256], the IC50 is 49.1 nM in experiment [1]; 71.7 nM against ErbB2 WT; at least 10000 nM at EGFR; 12.2 nM in experiment [2]; at least 5000 nM against EGFR wild type (EGFR WT).

As to `Cc1cc(Nc2ncnc3cnc(N4CCOC[C@H]4C)nc23)ccc1Oc1ccc2c(c1)ncn2C` [Example 257], the IC50 in experiment [1] is 19.8 nM; at ErbB2 WT it was 8.2 nM; against EGFR, 3270 nM; in experiment [2], 9.4 nM; against EGFR wild type (EGFR WT), at least 5000 nM.

In the case of `CO[C@H]1C[C@@H](Nc2ncc3ncnc(Nc4ccc(Oc5ccc6c(c5)ncn6C)c(C)c4)c3n2)C1` [Example 260], the IC50 was 31.8 nM in experiment [1]; 42 nM against ErbB2 WT; at least 10000 nM against EGFR; 21.5 nM in experiment [2]; at least 5000 nM against EGFR wild type (EGFR WT).

For the compound `Cc1cc(Nc2ncnc3cnc(NC(C)C)nc23)ccc1Oc1ccc2c(c1)ncn2C` [Example 261], the concentration for half-maximal inhibition (IC50) was 48.8 nM in experiment [1]; 86.1 nM on ErbB2 WT; at least 10000 nM at EGFR; 21.9 nM in experiment [2]; at least 5000 nM on EGFR wild type (EGFR WT).

Regarding `Cc1cc(Nc2ncnc3cnc(N4CC5(CC5)CS4(=O)=O)nc23)ccc1Oc1ccc2c(c1)ncn2C` [Example 264], the half-maximal inhibitory concentration (IC50) in experiment [1] was 35.1 nM; against ErbB2 WT it was 42.4 nM; against EGFR, at least 10000 nM; in experiment [2], 6.6 nM; at EGFR wild type (EGFR WT) it was at least 5000 nM.

As for `CSc1ncc2ncnc(Nc3ccc(Oc4ccc5c(c4)ncn5C)c(C)c3F)c2n1` [Example 266], the IC50 was 115 nM in experiment [1]; 796 nM against ErbB2 WT; at least 10000 nM at EGFR; 642 nM in experiment [2]; at least 5000 nM against EGFR wild type (EGFR WT).

With `Cc1cc(Nc2ncnc3cnc(NC4CC4)nc23)ccc1Oc1ccc2c(c1)ncn2C` [Example 270], the IC50 in experiment [1] was 10.9 nM; against ErbB2 WT it was 22.2 nM; on EGFR it was at least 10000 nM; in experiment [2], 3.1 nM; on EGFR wild type (EGFR WT) it was at least 5000 nM.

Regarding `Cc1cc(Nc2ncnc3cnc(NC4CCCC4)nc23)ccc1Oc1ccc2c(c1)ncn2C` [Example 273], the IC50 is 95 nM in experiment [1]; 202 nM against ErbB2 WT; at least 10000 nM on EGFR; 33.5 nM in experiment [2]; at least 5000 nM against EGFR wild type (EGFR WT).

As for `Cc1cc(Nc2ncnc3cnc(N[C@H]4CNC[C@H]4F)nc23)ccc1Oc1ccc2c(c1)ncn2C` [Example 276], the IC50 is 8 nM in experiment [1]; 13.5 nM on ErbB2 WT; 1360 nM on EGFR; 41.5 nM in experiment [2]; at least 5000 nM against EGFR wild type (EGFR WT).

`Cc1cc(Nc2ncnc3cnc(N4CCN[C@H](C)C4)nc23)ccc1Oc1ccc2c(c1)ncn2C` [Example 277]: the IC50 is 16 nM in experiment [1]; 42.8 nM against ErbB2 WT; at least 10000 nM at EGFR; 28.3 nM in experiment [2]; at least 5000 nM at EGFR wild type (EGFR WT).

For the compound `Cc1cc(Nc2ncnc3cnc(N4CCN[C@@H](C)C4)nc23)ccc1Oc1ccc2c(c1)ncn2C` [Example 278], the IC50 in experiment [1] is 22 nM; against ErbB2 WT, 42.9 nM; against EGFR, 9550 nM; in experiment [2], 13.5 nM; on EGFR wild type (EGFR WT) it was at least 5000 nM.

On to `Cc1cc(Nc2ncnc3cnc(O[C@H]4CCN(C)C[C@H]4F)nc23)ccc1Oc1ccc2c(c1)ncn2C` [Example 286], for which the IC50 in experiment [1] was 98.1 nM; against ErbB2 WT it was 468 nM; against EGFR, at least 10000 nM; in experiment [2], 81.4 nM; on EGFR wild type (EGFR WT), at least 5000 nM.

In the case of `Cc1cc(Nc2ncnc3cnc(O[C@H]4CN(C)C[C@H]4F)nc23)ccc1Oc1ccc2c(c1)ncn2C` [Example 287], the IC50 in experiment [1] was 42.9 nM; against ErbB2 WT, 118 nM; at EGFR, at least 10000 nM; in experiment [2] it was 60.9 nM; on EGFR wild type (EGFR WT) it was at least 5000 nM.
